Results taken from ChEMBL document CHEMBL5360552, “Potential RNA-dependent RNA polymerase (RdRp) inhibitors as prospective drug candidates for SARS-CoV-2” (Eur J Med Chem, 2023).

Experiments:
SARS-CoV-2 [1] = assay: Antiviral activity against SARS-CoV-2 infected in african green monkey Vero E6 cells assessed as reduction in viral replication; format: functional, organism-based; details: Severe acute respiratory syndrome coronavirus 2, Vero C1008
SARS-CoV-2 [2] = assay: Antiviral activity against SARS-CoV-2 infected in human Calu-3 cells assessed as reduction in viral yield incubated for 48 hrs by RT-PCR; format: functional, organism-based; details: Severe acute respiratory syndrome coronavirus 2, Calu-3, 48 h
in vitro = details: human, Calu-3 cells
Description: Selectivity index, ratio of CC50 for human Calu-3 cells to EC50 for SARS-CoV-2 infected in human Calu-3

[3] = Cytotoxicity against human Calu-3 cells assessed as cell growth inhibition incubated for 4 hrs by XTT assay; format: toxicity, cell-based
[4] = Cytotoxicity against african green monkey Vero E6 cells assessed as inhibition of cell growth incubated for 4 days by MTS assay; format: toxicity, cell-based, Vero C1008; details: chlorocebus sabaeus, time 4 day
[5] = Cytotoxicity against human Calu-3 cells assessed as inhibition of cell growth incubated for 4 days by MTS assay; format: toxicity, cell-based; details: time 4 day
SARS-CoV-2 [6] = assay: Antiviral activity against SARS-CoV-2 infected in african green monkey Vero E6 cells pretreated for 1 hrs followed by viral infection for 2 days post treatment by qRT-PCR; format: functional, organism-based, Severe acute respiratory syndrome coronavirus 2
SARS-CoV-2 [7] = assay: Antiviral activity against SARS-CoV-2 infected in human Calu-3 cells pretreated for 1 hrs followed by viral infection for 2 days post treatment by qRT-PCR; format: functional, organism-based; details: Severe acute respiratory syndrome coronavirus 2, Calu-3
SARS-CoV-2 [8] = assay: Antiviral activity against SARS-CoV-2 infected in african green monkey Vero E6 cells assessed as reduction in viral yield at 20 uM incubated for 48 hrs post infection by qRT-PCR relative to control; format: functional, Severe acute respiratory syndrome coronavirus 2; design: scale not given: the % may be the effect or the level left
[9] = Cytotoxicity against human Calu-3 cells assessed as cell growth inhibition by neutral red cytopathic assay; format: toxicity, cell-based
[10] = Selectivity index, ratio of CC50 for human Calu-3 cells to EC90 for SARS-CoV-2 infected in human Calu-3 cells; format: toxicity, cell-based; details: read-out: Selectivity Index
[11] = Cytotoxicity against african green monkey Vero 76 cells assessed as cell growth inhibition by neutral red cytopathic assay; format: toxicity, cell-based; details: chlorocebus sabaeus
SARS-CoV-2 [12] = assay: Antiviral activity against SARS-CoV-2 WA1/2020 infected in human Calu-3 cells preincubated for 2 hrs followed by viral infection and measured after 48 hrs by microscopy analysis; format: functional, organism-based; details: Severe acute respiratory syndrome coronavirus 2, WA1/2020, Calu-3
[13] = Cytotoxicity against human Caco-2 cells assessed as cell growth inhibition by neutral red cytopathic assay; format: toxicity, cell-based
[14] = Selectivity index, ratio of CC50 for african green monkey Vero 76 cells to EC90 for SARS-CoV-2 infected in African Green monkey Vero 76 cells; format: toxicity, cell-based; details: read-out: Selectivity Index
SARS-CoV-2 [15] = assay: Antiviral activity against SARS-CoV-2 WA1/2020 infected in human Caco-2 cells preincubated for 24 hrs followed by viral infection and measured after 3 day post infection by viral yield reduction assay; format: functional; details: Severe acute respiratory syndrome coronavirus 2, WA1/2020, Caco-2, 96 h; time 4 day
[16] = Selectivity index, ratio of CC50 for human Caco-2 cells to EC90 for SARS-CoV-2 infected in human Caco-2 cells; format: toxicity, cell-based; details: read-out: Selectivity Index
SARS-CoV-2 [17] = assay: Antiviral activity against SARS-CoV-2 WA1/2020 infected in african green monkey Vero 76 cells preincubated for 24 hrs followed by viral infection and measured after 3 day post infection by viral yield reduction assay; format: functional; details: Severe acute respiratory syndrome coronavirus 2, WA1/2020, Vero 76, 96 h; time 4 day
SARS-CoV-2 [18] = assay: Antiviral activity against SARS-CoV-2 WA1/2020 infected in african green monkey Vero E6 cells preincubated for 24 hrs followed by viral infection and measured after 5 day post infection by cytopathic effect assay; format: functional; details: Severe acute respiratory syndrome coronavirus 2, WA1/2020, Vero C1008, 144 h; time 6 day
[19] = Selectivity index, ratio of CC50 for african green monkey Vero 76 cells to EC90 for SARS-CoV-2 infected in African Green monkey Vero 76 cells assessed as reduction in cytopathic effect; format: toxicity, cell-based; details: read-out: Selectivity Index
[20] = Cytotoxicity against african green monkey Vero E6 cells assessed as inhibition of cell growth by CCK-8 assay; format: toxicity, cell-based, Vero C1008; details: chlorocebus sabaeus
[21] = Cytotoxicity against HEK293T cells assessed as cell growth inhibition incubated for 24 hrs by CCK-8 assay; format: toxicity, cell-based, HEK-293T; details: human
[22] = target: Replicase polyprotein 1ab (Severe acute respiratory syndrome coronavirus 2) (UniProt P0DTD1); assay: Inhibition of SARS-CoV-2 RdRp transfected in HEK293T cells at 10 microM incubated for 24 hrs by Gluc-Activity assay relative to control; format: cell-based
[23] = Therapeutic index, ratio of CC50 for HEK293T cells to EC50 for inhibition of SARS-CoV-2 RdRp; format: toxicity; details: human, read-out: TI
SARS-CoV-2 [24] = assay: Antiviral activity against wild type SARS-CoV-2 infected in human Calu-3 cells of organoid assessed as intracellular viral RNA level measured after 48 hrs by qRT-PCR analysis; format: functional, organism-based; details: Severe acute respiratory syndrome coronavirus 2, Calu-3, 48 h
[25] = Selectivity index, ratio of CC50 for african green monkey Vero E6 cells to EC50 for SARS-CoV-2 infected in African Green monkey Vero E6 cells; format: toxicity, cell-based, Vero C1008; details: read-out: Selectivity Index

Cc1cccc(C)c1OCC(=O)N[C@@H](Cc1ccccc1)[C@@H](O)C[C@H](Cc1ccccc1)NC(=O)[C@H](C(C)C)N1CCCNC1=O [LOPINAVIR]
IC50 (SARS-CoV-2 [1]): 11.5 µM

NC(=O)c1ncn([C@@H]2O[C@H](CO)[C@@H](O)[C@H]2O)n1 [RIBAVIRIN]
EC50 (SARS-CoV-2 [2]): 7.1 µM
selectivity ratio (in vitro): 16
CC50 at 4 h [3]: 160 µM

O=C(O)[C@H]1O[C@@H](Oc2cc3oc(-c4ccccc4)cc(=O)c3c(O)c2O)[C@H](O)[C@@H](O)[C@@H]1O [BAICALIN]
CC50 at 96 h [4]: > 100 µM
CC50 at 96 h [5]: > 100 µM
EC50 (SARS-CoV-2 [6]; Severe acute respiratory syndrome coronavirus 2, Vero C1008): 9 µM
EC50 (SARS-CoV-2 [7]): 8 µM
Activity (SARS-CoV-2 [8]): 98%

Nc1ncnc2c([C@@H]3N[C@H](CO)[C@@H](O)[C@H]3O)c[nH]c12
CC50 [9]: > 50 µM
selectivity ratio [10]: > 3.5
CC50 [11]: > 296 µM
EC50 (SARS-CoV-2 [12]): 14.2 µM
CC50 [13]: 82.8 µM
selectivity ratio [14]: > 27
EC90 (SARS-CoV-2 [15]): 14.2 µM
selectivity ratio [16]: 5.8
EC90 (SARS-CoV-2 [17]): 10.9 µM
EC90 (SARS-CoV-2 [18]): 50.3 µM
selectivity ratio [19]: 5.8

CC(C)OC(=O)[C@H](C)N[P@](=O)(OC[C@H]1O[C@@H](n2ccc(=O)[nH]c2=O)[C@](C)(F)[C@@H]1O)Oc1ccccc1 [SOFOSBUVIR]
EC50 (SARS-CoV-2 [2]): 7.3 µM
CC50 at 4 h [3]: 512 µM

CCC(CC)COC(=O)[C@H](C)N[P@](=O)(OC[C@H]1O[C@@](C#N)(c2ccc3c(N)ncnn23)[C@H](O)[C@@H]1O)Oc1ccccc1
IC50 (SARS-CoV-2 [1]): 7.18 µM
CC50 [20]: > 100 µM

COc1ccc(-c2cc(=O)c3c(O)cc(O)c(-c4cc(-c5cc(=O)c6c(O)cc(O)cc6o5)ccc4OC)c3o2)cc1 [ISOGINKGETIN]
IC50 (SARS-CoV-2 [1]): 22.8 µM

CC(C)(C)OC(=O)N[C@@H]1CCN(c2ccc3cccc(OCC(=O)NCc4ccccc4)c3n2)C1
CC50 at 24 h [21]: 79.4 µM
inhibition [22]: 74.9%
selectivity ratio [23]: 20.3

COC(=O)N[C@H](C(=O)N1CCC[C@H]1c1ncc(-c2ccc(-c3ccc(-c4cnc([C@@H]5CCCN5C(=O)[C@@H](NC(=O)OC)C(C)C)[nH]4)cc3)cc2)[nH]1)C(C)C
EC50 (SARS-CoV-2 [2]): 1.1 µM
CC50 at 4 h [3]: 38 µM

CC(C)C(=O)OC[C@H]1O[C@@H](n2cc/c(=N\O)[nH]c2=O)[C@H](O)[C@@H]1O [MOLNUPIRAVIR]
IC50 (SARS-CoV-2 [24]): 1960 nM

O=c1cc(-c2ccccc2)oc2cc(O)c(O)c(O)c12 [BAICALEIN]
CC50 at 96 h [4]: 8.6 µM
CC50 at 96 h [5]: 91 µM
EC90 (SARS-CoV-2 [6]; Severe acute respiratory syndrome coronavirus 2, Vero C1008, 48 h, time 2 day): 7.6 µM
EC50 (SARS-CoV-2 [7]): 1.2 µM
Activity (SARS-CoV-2 [8]): 99.8%

CCN(CC)CCCC(C)Nc1ccnc2cc(Cl)ccc12 (stereo not given) [CHLOROQUINE]
IC50 (SARS-CoV-2 [1]): 11.6 µM

CC(C)(C)OC(=O)N[C@H]1CCN(c2ccc3cccc(OCC(=O)NCc4ccccc4)c3n2)C1
CC50 at 24 h [21]: 72.4 µM
inhibition [22]: 92.8%
selectivity ratio [23]: 34.8

CC(C)(C)OC(=O)N1CCN(c2ccc3cccc(OCC(=O)NCc4ccccc4)c3n2)CC1
CC50 at 24 h [21]: 70.8 µM
inhibition [22]: 95%
selectivity ratio [23]: 65.5

NC(=O)c1nc(F)c[nH]c1=O
CC50 [20]: > 400 µM
selectivity ratio [25]: 6.46
